From ChEMBL document CHEMBL1201862, “PubChem BioAssay data set” (2004)
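96-well plates; 48 h exposure; 5 concentrations. Endpoints by linear interpolation between flanking doses. Not reached: highest tested concentration assigned. GI50: concentration for 50% inhibition of growth.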 Activity calls are given as the source filed them. Cut-off read from the data, not from the text of the source: active = GI50 up to about 1.1 µM and inactive = higher.

Assays:
Experiment in all cases: growth of human tumour cells (NCI), 48 h
A549 = tested on: A549
CAKI-1 = tested on: CAKI-1
EKVX = tested on: EKVX
HCC 2998 = tested on: HCC 2998
HL-60 = tested on: HL-60
HT-29 = tested on: HT-29
K562 = tested on: K562
NCI/ADR-RES = tested on: NCI/ADR-RES
OVCAR-4 = tested on: OVCAR-4
OVCAR-5 = tested on: OVCAR-5
RXF 393 = tested on: RXF 393
SF-295 = tested on: SF-295
SK-MEL-28 = tested on: SK-MEL-28
SN12C = tested on: SN12C
SNB-75 = tested on: SNB-75
SW-620 = tested on: SW-620
TK-10 = tested on: TK-10
U-251 = tested on: U-251
UACC-62 = tested on: UACC-62
NCI-H522 = tested on: NCI-H522

SMILES	GI50 (A549)	GI50 (CAKI-1)	GI50 (EKVX)	GI50 (HCC 2998)	GI50 (HL-60)	GI50 (HT-29)	GI50 (K562)	GI50 (NCI/ADR-RES)	GI50 (OVCAR-4)	GI50 (OVCAR-5)	GI50 (RXF 393)	GI50 (SF-295)	GI50 (SK-MEL-28)	GI50 (SN12C)	GI50 (SNB-75)	GI50 (SW-620)	GI50 (TK-10)	GI50 (U-251)	GI50 (UACC-62)	GI50 (NCI-H522)
OC1(c2ccccc2)CC2CCC(C1)N2CCc1ccccc1 (stereo unspecified)	49.8 µM (inactive)	53.2 µM (inactive)	97.5 µM (inactive)	58.3 µM (inactive)	58.9 µM (inactive)	23.8 µM (inactive)	45.5 µM (inactive)	> 100 µM (inactive)	72.8 µM (inactive)	26.1 µM (inactive)	> 100 µM (inactive)	34.6 µM (inactive)	68.4 µM (inactive)	> 100 µM (inactive)	> 100 µM (inactive)	48.9 µM (inactive)	> 100 µM (inactive)	> 100 µM (inactive)	80.4 µM (inactive)	–
CN1c2ccccc2C(=O)NC12CCN(CCCC(=O)c1ccc(F)cc1)CC2	> 100 µM (inactive)	82.4 µM (inactive)	> 100 µM (inactive)	19.7 µM (inactive)	30.7 µM (inactive)	23.1 µM (inactive)	25.9 µM (inactive)	> 100 µM (inactive)	87.3 µM (inactive)	> 100 µM (inactive)	62.8 µM (inactive)	73.5 µM (inactive)	70.1 µM (inactive)	> 100 µM (inactive)	71.6 µM (inactive)	50.4 µM (inactive)	–	> 100 µM (inactive)	> 100 µM (inactive)	26.7 µM (inactive)
C1CC2=C(C1)[Se]C(=C1Sc3nsnc3S1)[Se]2	> 100 µM (inactive)	> 100 µM (inactive)	> 100 µM (inactive)	> 100 µM (inactive)	–	> 100 µM (inactive)	–	> 100 µM (inactive)	> 100 µM (inactive)	> 100 µM (inactive)	–	> 100 µM (inactive)	> 100 µM (inactive)	> 100 µM (inactive)	> 100 µM (inactive)	> 100 µM (inactive)	> 100 µM (inactive)	> 100 µM (inactive)	> 100 µM (inactive)	> 100 µM (inactive)
C=C1C(=O)O[C@H]2[C@H]1[C@@H](OC(=O)C=C(C)C)CC1=C[C@@H](C[C@@]3(C)O[C@@H]23)OC1=O	22 µM (inactive)	3.14 µM (inactive)	4.23 µM (inactive)	17.4 µM (inactive)	–	4.14 µM (inactive)	–	2.17 µM (inactive)	6.32 µM (inactive)	16.7 µM (inactive)	1.83 µM (inactive)	13.4 µM (inactive)	–	4.54 µM (inactive)	18 µM (inactive)	1.43 µM (inactive)	–	16.3 µM (inactive)	3.52 µM (inactive)	1.16 µM (inactive)
CCOc1ccc2nc(NC(=O)C(=O)C3C(=O)C(CC4C(=O)c5ccccc5C4=O)C(=O)CC3(C)C)sc2c1 (stereo unspecified)	87.5 µM (inactive)	80 µM (inactive)	32.9 µM (inactive)	> 100 µM (inactive)	20.3 µM (inactive)	> 100 µM (inactive)	–	> 100 µM (inactive)	56.1 µM (inactive)	> 100 µM (inactive)	> 100 µM (inactive)	> 100 µM (inactive)	> 100 µM (inactive)	> 100 µM (inactive)	> 100 µM (inactive)	> 100 µM (inactive)	> 100 µM (inactive)	> 100 µM (inactive)	90.4 µM (inactive)	> 100 µM (inactive)
CC#CS(=O)(=O)c1ccccc1	16.1 µM (inactive)	1.04 µM (active)	18.6 µM (inactive)	3.96 µM (inactive)	1.8 µM (inactive)	3.67 µM (inactive)	–	10.4 µM (inactive)	3.19 µM (inactive)	5.58 µM (inactive)	14.2 µM (inactive)	3.56 µM (inactive)	3.13 µM (inactive)	6.32 µM (inactive)	3.01 µM (inactive)	3.78 µM (inactive)	4.92 µM (inactive)	12.9 µM (inactive)	3.24 µM (inactive)	1.62 µM (inactive)
COc1cc(CCCOC2OC(COC3OCC(O)C(O)C3O)C(O)C(O)C2O)cc2cc(-c3ccc4c(c3)OCO4)oc12 (stereo unspecified)	> 175 µM (inactive)	> 175 µM (inactive)	> 175 µM (inactive)	> 98.4 µM (inactive)	> 175 µM (inactive)	> 175 µM (inactive)	> 175 µM (inactive)	> 175 µM (inactive)	> 175 µM (inactive)	> 175 µM (inactive)	> 94 µM (inactive)	> 175 µM (inactive)	> 175 µM (inactive)	81.3 µM (inactive)	> 175 µM (inactive)	> 175 µM (inactive)	–	> 175 µM (inactive)	> 175 µM (inactive)	> 175 µM (inactive)
COC(=O)c1cc(NC2OCC(OC(C)=O)C(OC(C)=O)C2OC(C)=O)nc(SC)c1C(=O)OC (stereo unspecified)	> 100 µM (inactive)	> 100 µM (inactive)	> 100 µM (inactive)	> 100 µM (inactive)	74 µM (inactive)	> 100 µM (inactive)	–	> 100 µM (inactive)	> 100 µM (inactive)	> 100 µM (inactive)	–	> 100 µM (inactive)	> 100 µM (inactive)	> 100 µM (inactive)	49.9 µM (inactive)	> 100 µM (inactive)	> 100 µM (inactive)	> 100 µM (inactive)	> 100 µM (inactive)	> 100 µM (inactive)
